Assay results taken from the NIST ThermoML archive (doi:10.1016/j.jct.2007.04.005).

Assay: xn = mol fraction of the nth substance listed
Details: 328.15 K, Liquid

CCCCCCCCC [nonane] + C1CCCCC1
Details	mass density [kg/m3]
100 kPa, x2 = 0	690.5
100 kPa, x2 = 0.09303	693.4
100 kPa, x2 = 0.2009	697
100 kPa, x2 = 0.3051	700.9
100 kPa, x2 = 0.417	705.3
100 kPa, x2 = 0.512	709.7
100 kPa, x2 = 0.5996	714.5
100 kPa, x2 = 0.7052	720.8
100 kPa, x2 = 0.7993	727.5
100 kPa, x2 = 0.9039	735.7
101 kPa, x2 = 0	690.88
101 kPa, x2 = 0.1022	693.98
101 kPa, x2 = 0.1548	695.7
101 kPa, x2 = 0.2009	697.27
101 kPa, x2 = 0.2591	699.37
101 kPa, x2 = 0.3306	702.13
101 kPa, x2 = 0.4003	705.03
101 kPa, x2 = 0.4596	707.71
101 kPa, x2 = 0.5321	711.23
101 kPa, x2 = 0.612	715.53
101 kPa, x2 = 0.6649	718.62
101 kPa, x2 = 0.7224	722.28
101 kPa, x2 = 0.8047	728.07
101 kPa, x2 = 0.8686	733.12
101 kPa, x2 = 0.9405	739.53
2130 kPa, x2 = 0	691.4
2130 kPa, x2 = 0.09303	694.3
2130 kPa, x2 = 0.2009	697.9
2130 kPa, x2 = 0.3051	701.8
2130 kPa, x2 = 0.417	706.3
2130 kPa, x2 = 0.512	710.7
2130 kPa, x2 = 0.5996	715.6
2130 kPa, x2 = 0.7052	721.9
2130 kPa, x2 = 0.7993	728.6
2130 kPa, x2 = 0.9039	737
4150 kPa, x2 = 0	694.4
4150 kPa, x2 = 0.09303	697.3
4150 kPa, x2 = 0.2009	700.9
4150 kPa, x2 = 0.3051	704.8
4150 kPa, x2 = 0.417	709.3
4150 kPa, x2 = 0.512	713.7
4150 kPa, x2 = 0.5996	718.6
4150 kPa, x2 = 0.7052	724.9
4150 kPa, x2 = 0.7993	731.6
4150 kPa, x2 = 0.9039	739.9
6180 kPa, x2 = 0	696.3
6180 kPa, x2 = 0.09303	699.2
6180 kPa, x2 = 0.2009	702.8
6180 kPa, x2 = 0.3051	706.7
6180 kPa, x2 = 0.417	711.2
6180 kPa, x2 = 0.512	715.6
6180 kPa, x2 = 0.5996	720.5
6180 kPa, x2 = 0.7052	726.9
6180 kPa, x2 = 0.7993	733.5
6180 kPa, x2 = 0.9039	741.9
8210 kPa, x2 = 0	698.1
8210 kPa, x2 = 0.09303	701
8210 kPa, x2 = 0.2009	704.7
8210 kPa, x2 = 0.3051	708.6
8210 kPa, x2 = 0.417	713.1
8210 kPa, x2 = 0.512	717.5
8210 kPa, x2 = 0.5996	722.4
8210 kPa, x2 = 0.7052	728.8
8210 kPa, x2 = 0.7993	735.5
8210 kPa, x2 = 0.9039	743.9
10230 kPa, x2 = 0	699.9
10230 kPa, x2 = 0.09303	702.8
10230 kPa, x2 = 0.2009	706.5
10230 kPa, x2 = 0.3051	710.4
10230 kPa, x2 = 0.417	714.9
10230 kPa, x2 = 0.512	719.3
10230 kPa, x2 = 0.5996	724.3
10230 kPa, x2 = 0.7052	730.7
10230 kPa, x2 = 0.7993	737.3
10230 kPa, x2 = 0.9039	745.8
11250 kPa, x2 = 0	700.8
11250 kPa, x2 = 0.09303	703.7
11250 kPa, x2 = 0.2009	707.4
11250 kPa, x2 = 0.3051	711.3
11250 kPa, x2 = 0.417	715.8
11250 kPa, x2 = 0.512	720.2
11250 kPa, x2 = 0.5996	725.2
11250 kPa, x2 = 0.7052	731.6
11250 kPa, x2 = 0.7993	738.3
11250 kPa, x2 = 0.9039	746.7
12260 kPa, x2 = 0	701.7
12260 kPa, x2 = 0.09303	704.6
12260 kPa, x2 = 0.2009	708.3
12260 kPa, x2 = 0.3051	712.2
12260 kPa, x2 = 0.417	716.7
12260 kPa, x2 = 0.512	721.1
12260 kPa, x2 = 0.5996	726.1
12260 kPa, x2 = 0.7052	732.5
12260 kPa, x2 = 0.7993	739.2
12260 kPa, x2 = 0.9039	747.7
14290 kPa, x2 = 0	703.4
14290 kPa, x2 = 0.09303	706.3
14290 kPa, x2 = 0.2009	710.1
14290 kPa, x2 = 0.3051	714
14290 kPa, x2 = 0.417	718.5
14290 kPa, x2 = 0.512	722.9
14290 kPa, x2 = 0.5996	727.9
14290 kPa, x2 = 0.7052	734.4
14290 kPa, x2 = 0.7993	741
14290 kPa, x2 = 0.9039	749.5
16310 kPa, x2 = 0	705.1
16310 kPa, x2 = 0.09303	708
16310 kPa, x2 = 0.2009	711.8
16310 kPa, x2 = 0.3051	715.7
16310 kPa, x2 = 0.417	720.2
16310 kPa, x2 = 0.512	724.6
16310 kPa, x2 = 0.5996	729.7
16310 kPa, x2 = 0.7052	736.1
16310 kPa, x2 = 0.7993	742.8
16310 kPa, x2 = 0.9039	751.3
18340 kPa, x2 = 0	706.8
18340 kPa, x2 = 0.09303	709.6
18340 kPa, x2 = 0.2009	713.4
18340 kPa, x2 = 0.3051	717.3
18340 kPa, x2 = 0.417	721.9
18340 kPa, x2 = 0.512	726.3
18340 kPa, x2 = 0.5996	731.4
18340 kPa, x2 = 0.7052	737.9
18340 kPa, x2 = 0.7993	744.5
18340 kPa, x2 = 0.9039	753.1
20370 kPa, x2 = 0	708.4
20370 kPa, x2 = 0.09303	711.2
20370 kPa, x2 = 0.2009	715.1
20370 kPa, x2 = 0.3051	719
20370 kPa, x2 = 0.417	723.6
20370 kPa, x2 = 0.512	728
20370 kPa, x2 = 0.5996	733
20370 kPa, x2 = 0.7052	739.5
20370 kPa, x2 = 0.7993	746.2
20370 kPa, x2 = 0.9039	754.8
22390 kPa, x2 = 0	710
22390 kPa, x2 = 0.09303	712.8
22390 kPa, x2 = 0.2009	716.7
22390 kPa, x2 = 0.3051	720.6
22390 kPa, x2 = 0.417	725.2
22390 kPa, x2 = 0.512	729.6
22390 kPa, x2 = 0.5996	734.7
22390 kPa, x2 = 0.7052	741.2
22390 kPa, x2 = 0.7993	747.9
22390 kPa, x2 = 0.9039	756.5
24420 kPa, x2 = 0	711.5
24420 kPa, x2 = 0.09303	714.4
24420 kPa, x2 = 0.2009	718.2
24420 kPa, x2 = 0.3051	722.2
24420 kPa, x2 = 0.417	726.8
24420 kPa, x2 = 0.512	731.2
24420 kPa, x2 = 0.5996	736.3
24420 kPa, x2 = 0.7052	742.8
24420 kPa, x2 = 0.7993	749.5
24420 kPa, x2 = 0.9039	758.1
26450 kPa, x2 = 0	713
26450 kPa, x2 = 0.09303	715.9
26450 kPa, x2 = 0.2009	719.8
26450 kPa, x2 = 0.3051	723.7
26450 kPa, x2 = 0.417	728.3
26450 kPa, x2 = 0.512	732.7
26450 kPa, x2 = 0.5996	737.9
26450 kPa, x2 = 0.7052	744.4
26450 kPa, x2 = 0.7993	751.1
26450 kPa, x2 = 0.9039	759.8
28470 kPa, x2 = 0	714.5
28470 kPa, x2 = 0.09303	717.4
28470 kPa, x2 = 0.2009	721.3
28470 kPa, x2 = 0.3051	725.2
28470 kPa, x2 = 0.417	729.8
28470 kPa, x2 = 0.512	734.2
28470 kPa, x2 = 0.5996	739.4
28470 kPa, x2 = 0.7052	746
28470 kPa, x2 = 0.7993	752.6
28470 kPa, x2 = 0.9039	761.4
29490 kPa, x2 = 0	715.2
29490 kPa, x2 = 0.09303	718.1
29490 kPa, x2 = 0.2009	722
29490 kPa, x2 = 0.3051	725.9
29490 kPa, x2 = 0.417	730.6
29490 kPa, x2 = 0.512	735
29490 kPa, x2 = 0.5996	740.2
29490 kPa, x2 = 0.7052	746.7
29490 kPa, x2 = 0.7993	753.4
29490 kPa, x2 = 0.9039	762.1
30500 kPa, x2 = 0	716
30500 kPa, x2 = 0.09303	718.8
30500 kPa, x2 = 0.2009	722.8
30500 kPa, x2 = 0.3051	726.7
30500 kPa, x2 = 0.417	731.3
30500 kPa, x2 = 0.512	735.7
30500 kPa, x2 = 0.5996	740.9
30500 kPa, x2 = 0.7052	747.5
30500 kPa, x2 = 0.7993	754.2
30500 kPa, x2 = 0.9039	762.9
32530 kPa, x2 = 0	717.4
32530 kPa, x2 = 0.09303	720.3
32530 kPa, x2 = 0.2009	724.2
32530 kPa, x2 = 0.3051	728.1
32530 kPa, x2 = 0.417	732.8
32530 kPa, x2 = 0.512	737.2
32530 kPa, x2 = 0.5996	742.4
32530 kPa, x2 = 0.7052	748.9
32530 kPa, x2 = 0.7993	755.7
32530 kPa, x2 = 0.9039	764.4
34550 kPa, x2 = 0	718.8
34550 kPa, x2 = 0.09303	721.7
34550 kPa, x2 = 0.2009	725.6
34550 kPa, x2 = 0.3051	729.6
34550 kPa, x2 = 0.417	734.2
34550 kPa, x2 = 0.512	738.7
34550 kPa, x2 = 0.5996	743.9
34550 kPa, x2 = 0.7052	750.5
34550 kPa, x2 = 0.7993	757.1
34550 kPa, x2 = 0.9039	765.9
36580 kPa, x2 = 0	720.2
36580 kPa, x2 = 0.09303	723.1
36580 kPa, x2 = 0.2009	727
36580 kPa, x2 = 0.3051	730.9
36580 kPa, x2 = 0.417	735.7
36580 kPa, x2 = 0.512	740.1
36580 kPa, x2 = 0.5996	745.3
36580 kPa, x2 = 0.7052	751.9
36580 kPa, x2 = 0.7993	758.6
36580 kPa, x2 = 0.9039	767.4
38600 kPa, x2 = 0	721.6
38600 kPa, x2 = 0.09303	724.4
38600 kPa, x2 = 0.2009	728.4
38600 kPa, x2 = 0.3051	732.3
38600 kPa, x2 = 0.417	737
38600 kPa, x2 = 0.512	741.5
38600 kPa, x2 = 0.5996	746.7
38600 kPa, x2 = 0.7052	753.3
38600 kPa, x2 = 0.7993	760
38600 kPa, x2 = 0.9039	768.9
39620 kPa, x2 = 0	722.2
39620 kPa, x2 = 0.09303	725.1
39620 kPa, x2 = 0.2009	729
39620 kPa, x2 = 0.3051	733
39620 kPa, x2 = 0.417	737.7
39620 kPa, x2 = 0.512	742.1
39620 kPa, x2 = 0.5996	747.4
39620 kPa, x2 = 0.7052	754
39620 kPa, x2 = 0.7993	760.7
39620 kPa, x2 = 0.9039	769.6
